For 40 compounds, inhibition and IC50 results are on record in patent US20260028330A1, “HETEROARYL CARBOXAMIDE AND RELATED GPR84 ANTAGONISTS AND USES THEREOF” (LIMINAL BIOSCIENCES LIMITED, priority 2022, published 2026).

Structures are written as SMILES.

For this assay, the target named is T1, human GPR84 receptor (Homo sapiens, UniProt Q9NQS5).
T1 construct: host or cells: HEK293 cells, transient transfection
The experiment in a line: Gαi biosensor BRET assay in transfected HEK293 cells (antagonism of GPR84 agonist ZQ-16). The assay is classed as cell-based. Particulars: 200 nmol/L ZQ-16; for inhibition at 10 µM: code F = 10 μM; for inhibition at 2 µM: code A = 2 μM. An excerpt:
Background—The following assays can be used for determination of GPR84 activation in living HEK293 cells. The Gαi BRET biosensor (Gagnon et al., 2018; Gales et al., 2006. Nat Struct Mol Biol. 13, 778-86; Saulieres et al., 2012. Nat Chem Biol. 8, 622-30) allows to directly monitor GPR84-mediated activation of Gαi. The Gαi biosensor consists of a Rluc8-tagged Gαi2 subunit, a GFP10-tagged Gγ2 subunit, and an untagged Gβ1. Agonist stimulation and GPR84 activation triggers a physical separation between the RLuc8-Gαi donor and the GFP10-Gγ2 acceptor, resulting in a decrease in BRET signal whose amplitude is correlated to ligand efficacy (Gales et al., 2006). Moreover, signaling functions of GPCRs are tightly regulated by endocytosis, the targeting of receptors to endosomes and their sorting to lysosomes or recycling to the plasma membrane. The early endosomes (EEs) trafficking assay (Namkung et al., 2016. Nat Commun. 7, 12178) uses Rluc8-tagged GPR84 and Renilla GFP (rGFP) attached to the FYVE domain from human endofin/zinc finger FYVE domain-containing protein 16, which binds phosphatidylinositol 3-phosphate in EEs. Agonist stimulation of GPR84-Rluc8 leads to trafficking of the receptor to EEs, and ensuing increase of the donor concentration relative to the rGFP-FYVE acceptor anchored in the same cellular compartment, and thus results in an increase in BRET signal.
Plasmids—The cDNA clones for human GPR84 receptor, human Gαi2, Gβ1, and Gγ2 were obtained from the cDNA Resource Center (www.cdna.org). GFP10 (F64L, S147P, S202F and H231L variant of Aequorea victoria Green Fluorescent Protein) gBlocks gene fragments (Integrated DNA Technologies, IA) and linker were inserted in frame at the N-terminus of human Gγ2. Rluc8 (A55T, C124A, S130A, K136R, A143M, M185V, M253L, and S287L variant of the Renilla reniformis luciferase) gBlocks gene fragment was inserted with linkers in frame in between residues 91 and 92 of Gα2 or at the C-terminus of GPR84. The FYVE domain from human endofin (residues Q739 to K806) attached in frame at the C terminus of a humanized Renilla GFP (rGFP), were synthesized as gBlocks gene fragments.
Bioluminescence Resonance Energy Transfer (BRET) Measurement—HEK293 cells were transfected with GPR84-Rluc8 and rGFP-FYVE for the EEs trafficking biosensor or with GPR84, Gαi2-Rluc8, GFP10-Gγ2, and Gβ1 for the Gαi biosensor. The following day, transiently transfected cells were seeded in 96-well white clear bottom microplates coated with poly-D-lysine and left in culture for 24 hours. Cells were washed once with Tyrode's buffer (140 mmol/L NaCl, 1 mmol/L CaCl2, 2.7 mmol/L KCl, 0.49 mmol/L MgCl2, 0.37 mmol/L NaH2PO4, 5.6 mmol/L glucose, 12 mmol/L NaHCO3, and 25 mmol/L HEPES, pH 7.5) before performing assays in Tyrode's buffer. Test compounds were incubated with cells for 5 (Gui) or 15 (EEs) minutes at 37° C. before addition of 200 nmol/L of the GPR84 agonist ZQ-16 (2-(Hexylthio)-6-hydroxy-4(3H)-pyrimidinone) for 5 minutes at room temperature (Gui) or 30 minutes at 37° C. (EEs). The Rluc8 substrate coelenterazine 400A (Prolume, Lakeside, AZ) was added at a final concentration of 5 μmol/L and BRET readings were collected using an Infinite M1000 microplate reader (Tecan, Morrisville, NC). BRET^2 readings between Rluc8 and GFP10 or rGFP were collected by sequential integration of the signals detected in the 370 to 450 nm (Rluc8) and 510 to 540 nm (GFP10, rGFP) windows. The BRET signal was calculated as the ratio of light emitted by acceptor (GFP10, rGFP) over the light emitted by donor (Rluc8). The values were corrected to net BRET by subtracting the background BRET signal obtained in cells transfected with Rluc8 constructs alone. Ligand-promoted net BRET values were calculated by subtracting vehicle-induced net BRET from ligand-induced net BRET.
On the technique in general: In BRET a luciferase serves as donor, and the signal depends on an acceptor being close.

Usually inhibition stands for the share of the control response that was lost under treatment. Low readings indicate little suppression, high ones strong suppression. In general, IC50 refers to the concentration at which inhibition is half-maximal. Low values mean higher potency, high ones lower potency.

T1 sequence (Q9NQS5 whole entry): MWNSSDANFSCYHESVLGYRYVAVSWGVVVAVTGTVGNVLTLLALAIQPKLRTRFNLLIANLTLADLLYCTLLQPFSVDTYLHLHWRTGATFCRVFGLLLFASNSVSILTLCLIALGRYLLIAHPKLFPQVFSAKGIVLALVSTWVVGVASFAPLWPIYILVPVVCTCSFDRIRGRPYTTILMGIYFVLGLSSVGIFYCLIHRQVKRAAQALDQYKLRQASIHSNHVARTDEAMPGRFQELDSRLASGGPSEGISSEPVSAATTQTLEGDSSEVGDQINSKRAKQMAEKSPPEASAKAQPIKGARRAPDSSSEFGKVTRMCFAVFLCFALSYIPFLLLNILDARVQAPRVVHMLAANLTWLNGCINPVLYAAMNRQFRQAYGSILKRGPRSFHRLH

In turn, `Cc1ccc(N(C)C(=O)c2cn(CC3OCC4(CC4)CO3)nn2)nc1C#CC1CC1` [Compound I-50] showed an inhibition at 10 µM (HEK293, single concentration) of at most 25%. In the case of `O=C(c1cn(CC2OCC3(CC3)CO2)nn1)N1CCCc2c(C#CC3CC3)cccc21` [Compound I-28], the inhibition at 10 µM (HEK293, single concentration) lay in the range of 50 to 75%.

In the case of `CN(C)c1ccc(C#CC2CC2)cc1N(C)C(=O)c1cn(CC2OCC3(CC3)CO2)nn1` [Compound I-26], the IC50 is 300 to 1000 nM. The compound further registered an inhibition at 10 µM (HEK293, single concentration) above 75%. Under “HEK293, single concentration”, `CN(Cc1ccc(C#CC2CC2)cc1C1CC1)c1cn(CC2OCC3(CC3)CO2)nn1` [Compound I-51] displayed an inhibition at 10 µM above 75%.

Consider `Cc1ccc(C#CC2CC2)cc1N(C)C(=O)c1cn(CC2OCC3(CC3)CO2)nn1` [Compound I-17], for which the IC50 was at most 300 nM. This compound showed an inhibition at 2 µM (HEK293, single concentration) above 75%. Where the note is “HEK293, single concentration, code E = 6.7 μM”, `Cc1ccc(C#CC2CC2)cc1C(=O)Nc1cn(CC2OCC3(CC3)CO2)nn1` [Compound I-9, N-(1-((5,7-dioxaspiro[2.5]octan-6-yl)methyl)-1H-1,2,3-triazol-4-yl)-5-(cyclopropylethynyl)-2-methylbenzamide] registered an inhibition at 6.7 µM of at most 25%. In turn, `Cc1cc(C#CC2CC2)ccc1N(C(=O)c1cn(CC2OCC3(CC3)CO2)nn1)C(C)C` [Compound I-84] had an IC50 of at most 300 nM. The compound also came in with an inhibition at 2 µM (HEK293, single concentration) above 75%.

`Cc1cc(C#CC2CC2)ccc1N(C)C(=O)c1cn(CC2OCC3(CC3)CO2)nn1` [Compound I-21] had an IC50 of at most 300 nM. The inhibition at 10 µM (HEK293, single concentration) was above 75%. As to `Cc1ccccc1N(C)C(=O)c1cn(CC2OCC3(CC3)CO2)nn1` [Compound I-33], the inhibition at 10 µM (HEK293, single concentration) was at most 25%. The same measure, in the same setting: under `Cc1cc(C#CC2CC2)ccc1/N=C(\OC(C)C)c1cn(CC2OCC3(CC3)CO2)nn1` [Compound I-85] stands 25 to 50%. The compound `O=C(c1cn(CC2OCC3(CC3)CO2)nn1)N(c1cc(C#CC2CC2)ccc1F)C1CC1` [Compound I-90] displayed an IC50 of at most 300 nM. The compound also registered an inhibition at 10 µM (HEK293, single concentration) above 75%. Under “HEK293, single concentration”, `Cc1ccc(C#CC2CC2)cc1N(C)c1cn(CC(=O)N(C)C)nn1` [Compound I-7, 2-(4-((5-(cyclopropylethynyl)-2-methylphenyl)(methyl)amino)-1H-1,2,3-triazol-1-yl)-N,N-dimethylacetamide] had an inhibition at 10 µM above 75%. The same measure, in the same setting: under `O=C(Nc1cc(C#CC2CC2)ccc1Cl)c1cn(CC2OCC3(CC3)CO2)nn1` [Compound I-96] stands at most 25%; under `Cc1ccc(C#CC2CC2)cc1N(C)C(=O)c1c(C)cc(OCC(=O)N(C)C)cc1C` [Compound I-35], 25 to 50%. In turn, `CN(C(=O)c1cn(CC2OCC3(CC3)CO2)nn1)c1ccc(C#CC2CC2)cc1Br` [Compound I-38] registered an IC50 of at most 300 nM. This compound showed an inhibition at 2 µM (HEK293, single concentration) above 75%.

In turn, `Cc1cc(C#CC2CC2)ccc1N(C(=O)c1cn(CC2OCC3(CC3)CO2)nn1)C1CC1` [Compound I-83] came in with a half-maximal inhibitory concentration (IC50) of at most 300 nM. Moreover, the inhibition at 2 µM (HEK293, single concentration) was above 75%. On to `Cc1ccc(C#CC2CC2)cc1Nc1cn(CC2OCC3(CC3)CO2)cn1` [Compound I-15], for which the inhibition at 10 µM (HEK293, single concentration) was at most 25%. Turning to `Cc1cc(C#CC2CC2)cc(C)c1N(C)C(=O)c1cn(CC2OCC3(CC3)CO2)nn1` [Compound I-60], the IC50 lay within 300 to 1000 nM. Further, where the note is “HEK293, single concentration”, the inhibition at 10 µM was above 75%.

`Cc1cc(C#CC2CC2)ccc1NCc1cn(CC2OCC3(CC3)CO2)nn1` [Compound I-39] came in with an inhibition at 10 µM (HEK293, single concentration) of 25 to 50%.

In turn, `CN(C(=O)c1cn(CC2OCC3(CC3)CO2)nn1)c1ccc(C#CC2CC2)cc1F` [Compound I-29] had an IC50 of at most 300 nM. For the same compound, the inhibition at 2 µM (HEK293, single concentration) is above 75%.

On to `Cc1cc(C#CC2CC2)ccc1N(C)S(=O)(=O)c1cn(CC2OCC3(CC3)CO2)nn1` [Compound I-56], for which, where the note is “HEK293, single concentration”, the inhibition at 10 µM was above 75%. In the case of `O=C(c1cn(CC2OCC3(CC3)CO2)nn1)N(c1cc(C#CC2CC2)ccc1Br)C1CC1` [Compound I-92], the IC50 is 300 to 1000 nM. Also, the inhibition at 2 µM (HEK293, single concentration) is above 75%. For the compound `Cc1c(NC(=O)c2cccc(C#CC3CC3)c2)nnn1CC1OCC2(CC2)CO1` [Compound I-64], under “HEK293, single concentration”, the inhibition at 10 µM was at most 25%. `Cc1cc(F)c(C#CC2CC2)cc1N(C)C(=O)c1cn(CC2OCC3(CC3)CO2)nn1` [Compound I-100]: the IC50 was at most 300 nM. Where the note is “HEK293, single concentration”, this compound yielded an inhibition at 2 µM above 75%. Take `Cc1c(N(C)C(=O)c2cccc(C#CC3CC3)c2)nnn1CC1OCC2(CC2)CO1` [Compound I-63]: the inhibition at 10 µM (HEK293, single concentration) is at most 25%.

As for `Cc1ccc(C#CC2CC2)c2c1N(C(=O)c1cn(CC3OCC4(CC4)CO3)nn1)CCC2` [Compound I-48], the inhibition at 10 µM (HEK293, single concentration) was above 75%. With `O=C(c1cn(CC2OCC3(CC3)CO2)nn1)N1CCc2c(C#CC3CC3)cccc21` [Compound I-25], the inhibition at 2 µM (HEK293, single concentration) is at most 25%. `CN(c1ccc(C#CC2CC2)cc1)c1cn(CC2OCC(C)(C)CO2)nn1` [Compound I-82] registered an inhibition at 10 µM (HEK293, single concentration) of at most 25%. Still for that read-out and setting: for `Cc1cc(C#CC2CC2)ccc1N(C)Cc1cn(CC2OCC3(CC3)CO2)nn1` [Compound I-40] the value was above 75%; for `Cc1cc(C#CC2CC2)cc2c1C(N(C)c1cn(CC3OCC4(CC4)CO3)nn1)CC2` (centres unmarked) [Compound I-53], 25 to 50%.

Turning to `Cc1cc(C#CC2CC2)cc(C)c1NC(=O)c1cn(CC2OCC3(CC3)CO2)nn1` [Compound I-41], the inhibition at 10 µM (HEK293, single concentration) was at most 25%. `CN(C)c1cc(C#CC2CC2)ccc1N(C)C(=O)c1cn(CC2OCC3(CC3)CO2)nn1` [Compound I-1, 1-((5,7-dioxaspiro[2.5]octan-6-yl)methyl)-N-(4-(cyclopropylethynyl)-2-(dimethylamino)phenyl)-N-methyl-1H-1,2,3-triazole-4-carboxamide]: the half-inhibitory concentration (IC50) lay in the range of 300 to 1000 nM. In addition, where the note is “HEK293, single concentration”, the inhibition at 10 µM is above 75%.

Compound `Cc1cc(C#CC2CC2)ccc1N(C)C(=O)c1cnn(CC2OCC3(CC3)CO2)c1` [Compound I-105] yielded an IC50 of 300 to 1000 nM. In addition, the inhibition at 10 µM (HEK293, single concentration) was above 75%.

In turn, `O=C(Nc1c(F)cc(C#CC2CC2)cc1F)c1cn(CC2OCC3(CC3)CO2)nn1` [Compound I-42] had an inhibition at 10 µM (HEK293, single concentration) of at most 25%. On the same count and under the same terms, for `Cc1cc(F)c(C#CC2CC2)cc1NC(=O)c1cn(CC2OCC3(CC3)CO2)nn1` [Compound I-101] the value was at most 25%. For the compound `CN(C(=O)c1cn(CC2OCC3(CC3)CO2)nn1)c1cc(C#CC2CC2)ccc1Br` [Compound I-44], the IC50 was in the range of 300 to 1000 nM. Where the note is “HEK293, single concentration”, the inhibition at 10 µM is above 75%.

With `Cc1ccc(C#CC2CC2)cc1N(C)C(=O)c1ccc(OCC(=O)N(C)C)nc1C` [Compound I-2, N-(5-(cyclopropylethynyl)-2-methylphenyl)-6-(2-(dimethylamino)-2-oxoethoxy)-N,2-dimethylnicotinamide], the inhibition at 10 µM (HEK293, single concentration) was at most 25%. With `Cc1cc(C#CC2CC2)cc(F)c1N(C)C(=O)c1cn(CC2OCC3(CC3)CO2)nn1` [Compound I-32], the IC50 is at most 300 nM. For the same compound, the inhibition at 10 µM (HEK293, single concentration) is above 75%. With `Cc1ccc(C#CC2CC2)cc1N(C)C(=O)c1ncc(OCC(=O)N(C)C)cc1C` [Compound I-34], the inhibition at 10 µM (HEK293, single concentration) was at most 25%. `CN(C(=O)c1cn(CC2OCC3(CC3)CO2)nn1)c1cccc(C#CC2CC2)c1` [Compound I-23] returned an IC50 of 300 to 1000 nM. This compound displayed an inhibition at 10 µM (HEK293, single concentration) above 75%.
